Measured values published in PubChem BioAssay (NCI).
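Tested at 5 concentrations; 48 h exposure; 96-well plates; endpoints linearly interpolated, else capped at highest concentration. The concentration for 50% growth inhibition is given as GI50. TGI: total growth inhibition.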 Where a SMILES comes first, the peptide text is derived from it. [ ]: non-standard residue; d: D form. ξ: configuration not given here. ξLac(3-iPr) = CC(C)CC(O)C(=O)O; NMeV = CN[CH](C(=O)O)C(C)C; NMeA = CN[CH](C)C(=O)O; βAla = NCCC(=O)O

How the values were obtained:
Experiment in all cases: growth of human tumour cells (NCI), 48 h
RPMI-8226 leukemia = test system: RPMI-8226 leukemia
SF-268 CNS = test system: SF-268 CNS
SK-MEL-5 melanoma = test system: SK-MEL-5 melanoma
HOP-62 NSCLC = test system: HOP-62 NSCLC
SK-MEL-28 melanoma = test system: SK-MEL-28 melanoma
HT29 colon = test system: HT29 colon
MOLT-4 leukemia = test system: MOLT-4 leukemia
OVCAR-3 ovarian = test system: OVCAR-3 ovarian
KM12 colon = test system: KM12 colon
A549 NSCLC = test system: A549 NSCLC

| Structure (SMILES) | TGI (RPMI-8226 leukemia) | TGI (SF-268 CNS) | TGI (SK-MEL-5 melanoma) | TGI (HOP-62 NSCLC) | TGI (SK-MEL-28 melanoma) | TGI (HT29 colon) | TGI (MOLT-4 leukemia) | TGI (OVCAR-3 ovarian) | TGI (KM12 colon) | TGI (A549 NSCLC) | GI50 (RPMI-8226 leukemia) | GI50 (SF-268 CNS) | GI50 (HOP-62 NSCLC) | GI50 (SK-MEL-28 melanoma) | GI50 (HT29 colon) | GI50 (MOLT-4 leukemia) | GI50 (OVCAR-3 ovarian) | GI50 (KM12 colon) | GI50 (A549 NSCLC) |
| --- | --- | --- | --- | --- | --- | --- | --- | --- | --- | --- | --- | --- | --- | --- | --- | --- | --- | --- | --- |
| O=C1/C(=C/c2ccc(Oc3ccccc3)cc2)N=C(c2ccccc2)N1c1ccc(S(=O)(=O)Nc2nccs2)cc1 | 32.3 µM | > 100 µM | 49.8 µM | 79.4 µM | > 100 µM | 72.6 µM | 71.2 µM | > 100 µM | 53.7 µM | > 100 µM |  |  |  |  |  |  |  |  |  |
| CCN(CC)c1ccc2nc3ccc(N=Nc4c(O)ccc5ccccc45)cc3[n+](-c3ccccc3)c2c1 | > 100 µM | > 100 µM | > 100 µM | > 100 µM | > 100 µM | > 100 µM | > 100 µM | > 100 µM | > 100 µM | > 100 µM |  |  |  |  |  |  |  |  |  |
| Cc1ccc(C2COc3cc(O)c(O)cc3C2)cc1 (stereo unspecified) | 37.9 µM | 49.3 µM | 105 µM | 266 µM | 32.8 µM | 149 µM | 18.6 µM | 23.1 µM | 127 µM | 192 µM |  |  |  |  |  |  |  |  |  |
| N#CC(C#N)N=Nc1ccc(-c2nc3ccccc3o2)cc1 |  | > 100 µM | 5.56 µM | 38.5 µM | 32.3 µM | 27.8 µM | 37 µM | 9.77 µM | 50.5 µM | 47.6 µM |  |  |  |  |  |  |  |  |  |
| C[C@]12CC[C@@H]3c4ccc(O)cc4CC[C@H]3[C@@H]1CC[C@@H]2OC(=O)CCc1ccccc1 | 35.6 µM | 35.8 µM | 33.7 µM | 55.9 µM | 39.2 µM | 40.7 µM | 40.3 µM | 61.6 µM | 78.7 µM | 52.9 µM |  |  |  |  |  |  |  |  |  |
| O=C1C=CC(=O)c2c(O)c(Br)c(Br)c(O)c21 | 3.42 µM | 38.3 µM | 27.2 µM | 24.8 µM | 4.91 µM | 9.89 µM | 0.549 µM | 15.8 µM | 16.7 µM | 41.5 µM |  |  |  |  |  |  |  |  |  |
| O=C(O)CCC(N=NNc1ccc(-c2nc3ccccc3[nH]2)cc1)C(=O)O (stereo unspecified) | > 100 µM |  | > 100 µM | > 100 µM | > 100 µM | > 100 µM | > 100 µM | > 100 µM | > 100 µM | > 100 µM |  |  |  |  |  |  |  |  |  |
| CCC(C)C1NC(=O)C2CCCN2C(=O)C(CC(C)C)OC(=O)CCNC(=O)C(C)N(C)C(=O)C(C(C)C)N(C)C1=O (stereo unspecified) (cyclo([ξLac(3-iPr)]PI[NMeV][NMeA][βAla]); configuration not given here) | 8.15 µM | 80.9 µM | 3.27 µM | 17.7 µM | > 100 µM | 43.7 µM | 21 µM | > 100 µM | 45.5 µM | > 100 µM |  |  |  |  |  |  |  |  |  |
| COc1cc(C(=O)CC2OC(=O)C(Cl)=C2Cl)ccc1Cl (stereo unspecified) | > 100 µM | > 100 µM | > 100 µM | > 100 µM | > 100 µM | > 100 µM | > 100 µM | > 100 µM | > 100 µM | > 100 µM |  |  |  |  |  |  |  |  |  |
| CO/N=C\c1cc(O)c(O)c(/C=N/OC)c1 | > 100 µM | > 100 µM | > 100 µM | > 100 µM | > 100 µM | > 100 µM | > 100 µM | > 100 µM | > 100 µM | > 100 µM |  |  |  |  |  |  |  |  |  |
| O=C(c1ccccc1)c1nc2ccc(Cl)cc2c2c1CCCO2 | > 100 µM | > 100 µM |  | > 100 µM | > 100 µM | > 100 µM | > 100 µM | > 100 µM | > 100 µM |  |  |  |  |  |  |  |  |  |  |
| N#C/C(=C\c1ccc(Br)cc1)n1nnc2cc(Cl)c(Cl)cc21 | 4.38 µM | > 100 µM |  | > 100 µM | 3.81 µM | 5.18 µM | > 100 µM | 5.29 µM | > 100 µM | > 100 µM | 1.42 µM | 3.84 µM | 3.26 µM | 1.84 µM | 2.18 µM | 2.51 µM | 2.1 µM | 2.92 µM | 3.1 µM |
| O=C(N/N=C/c1ccc([N+](=O)[O-])cc1)Nc1ccc(Br)cc1 | > 100 µM | > 100 µM | > 100 µM | > 100 µM | > 100 µM | > 100 µM | > 100 µM | > 100 µM | > 100 µM | > 100 µM |  |  |  |  |  |  |  |  |  |
| Clc1ccc(C[P+]2(c3ccccc3)CCCCC2)cc1 | > 100 µM |  | 43.3 µM | > 100 µM | > 100 µM | > 100 µM | > 100 µM | > 100 µM | > 100 µM | > 100 µM |  |  |  |  |  |  |  |  |  |
| CC(NC(=O)c1ccc(NP(=O)(OCc2ccc([N+](=O)[O-])o2)N(C)CCCCCl)cc1)c1ccc(OCC2CCCCC2)c(C(N)=O)c1 (stereo unspecified) | 21.1 µM | 36.1 µM | 17 µM | 43.4 µM | 31.6 µM | 44.4 µM | 68.8 µM | 33.9 µM | 32 µM | 33.2 µM |  |  |  |  |  |  |  |  |  |
| O=C1c2ccccc2C(=O)c2c(Nc3cc4c5c(ccc6c7ccc8c9c(cc(Nc%10cccc%11c%10C(=O)c%10ccccc%10C%11=O)c(c3c56)c97)-c3ccccc3C8=O)C(=O)c3ccccc3-4)cccc21 | > 100 µM | 75.2 µM | > 100 µM | 44.6 µM | > 100 µM | > 100 µM | > 100 µM | > 100 µM | > 100 µM | > 100 µM |  |  |  |  |  |  |  |  |  |
| O=C(c1ccccc1)C1C(c2ccccc2)N1S(=O)(=O)c1ccccc1 (stereo unspecified) | > 100 µM | > 100 µM | > 100 µM | > 100 µM | > 100 µM | > 100 µM | > 100 µM | > 100 µM | > 100 µM | > 100 µM |  |  |  |  |  |  |  |  |  |
| OCc1cc2ccncc2c2c1[nH]c1ccccc12 | 37.2 µM | 34.2 µM | 25.1 µM |  | > 100 µM | 22.8 µM | > 100 µM |  | > 100 µM | 24.8 µM |  |  |  |  |  |  |  |  |  |
| Cc1nc2[nH]ncn2c(=O)c1CCCl | > 10 µM | > 10 µM | > 10 µM | > 10 µM | > 10 µM | > 10 µM | > 10 µM |  |  | > 10 µM |  |  |  |  |  |  |  |  |  |
| CC(=O)n1cc(OP(=O)(Oc2ccccc2)Oc2ccccc2)c2ccccc21 | 42.2 µM | 81.3 µM | 40.9 µM |  | 86 µM | > 100 µM | 50.9 µM | 93.6 µM | > 100 µM | > 100 µM |  |  |  |  |  |  |  |  |  |
| Clc1ccc(OCc2nnc3sc(-c4ccc(-c5ccc(Cl)cc5Cl)o4)nn23)cc1 | > 100 µM | > 100 µM | > 100 µM | > 100 µM | > 100 µM | > 100 µM | > 100 µM | > 100 µM | > 100 µM | > 100 µM |  |  |  |  |  |  |  |  |  |
| CN=C(N)c1ccc(N=C(N)c2ccc(C(N)=Nc3ccc(C(N)=NC)cc3)cc2)cc1 | > 100 µM | > 100 µM | > 100 µM | > 100 µM | > 100 µM | > 100 µM | > 100 µM | > 100 µM | > 100 µM | > 100 µM |  |  |  |  |  |  |  |  |  |
| Cc1ccc2c(ccc(/C=C\c3cc(C)c4cccnc4c3O)[n+]2C)c1 | 21.6 µM | 47.6 µM | 2.98 µM | 27.6 µM |  |  | 28.4 µM | 12.9 µM | 31.6 µM | 40.9 µM |  |  |  |  |  |  |  |  |  |
| CC1(C)N=C(N)N=C(N)N1c1cccc(C(=O)Nc2ccc(S(=O)(=O)F)cc2)c1 | > 100 µM | > 100 µM | > 100 µM | > 100 µM | > 100 µM | > 100 µM | > 100 µM | > 100 µM | > 100 µM | > 100 µM |  |  |  |  |  |  |  |  |  |
| Oc1c(Br)cc(/C=C/c2cccc(/C=C/c3cc(Br)c(O)c(Br)c3)n2)cc1Br | 27.5 µM | 32.9 µM | 19.8 µM | > 100 µM | 58.6 µM | 25.1 µM | 14.7 µM | 31.1 µM | 25.2 µM | 14.9 µM |  |  |  |  |  |  |  |  |  |
